Literature values as cited in patent US4127521A, “Novel octacosapeptides, intermediates therefor and pharmaceutical compositions and methods employing said octacosapeptides” (priority 1977, dated 1978).

What was measured:
[1] = injected directly into the brain of the rat
[2] = test system: brain opiate receptor sites

H-Tyr-Gly-Gly-Phe-Met-OH [methionine enkephalin]
analgesic activity [1]: weak analgesic agent of short duration | binding to partially purified brain opiate receptor sites [2]: binds stereo-specifically
